Results published in patent publication US10842892B2, “Methods and apparatus for synthesizing imaging agents, and intermediates thereof” (Lantheus Medical Imaging, Inc., priority 2010, dated 2020).
“And” between values parts separate entries of the source, which are not always exact repeats. Equal values may be shown once.

Columns and labels:
[1] = system: chronic myocardial infarct (MI); assay: cardiac PET imaging in control and chronic myocardial infarct rabbits; assay type: in vivo; details: MI rabbit, images 20-30 min after injection
Source text: Male New Zealand rabbits (body weight 2.5-3.5 kg) were purchased from Harlan (Oakwood, Mich.) and maintained in the AAALAC-accredited Animal Care Facility at Lantheus Medical Imaging. The study protocol was approved by the Institutional Animal Care and Use Committee. The procedure of developing a rabbit model of myocardial infarction (MI) was similar to the method described previously (Fujita M, Morimoto Y, Ishihara M, Shimizu M, Takase B, Maehara T et al. A new rabbit model of myocardial infarction without endotracheal intubation. J Surg Res 2004; 116:124-8). Briefly, the rabbit was anesthetized with ketamine (40 mg/Kg, im) and xylazine (9 mg/Kg, im) and placed in a supine position. The surgery was performed under aseptic conditions. A mid-sternotomy was performed carefully to avoid injury of parietal pleura. The pericardial sac was exposed and incised. […]
PET images and cardiovascular parameters were evaluated in both normal and MI rabbits. […] In addition, electrocardiogram (ECG) was also recorded with 3 non-invasive limb leads in lead II configuration using the BIOPAC system. […] After a stabilization period, cardiovascular parameters: MAP, SBP, DBP and ECG, were recorded 5 minutes before imaging agent 1 intravenous injection (˜1.5 mCi) and the recording continued for additional 20 minutes post-injection. […]

[2] = syringe adsorption of imaging agent 1; assay type: physicochemical; details: three hours, ambient temperature
Description: The two sets of filled syringes were maintained at ambient temperature and humidity for a period of three hours, at which time the contents were injected into a clean 5 cc glass vial; a consistent volume of imaging agent 1 (0.1 mL) remained in the hub of each syringe. The total radioactivity content of both the vial and syringe were measured, decay corrected and the percent retention calculated. The difference in percent retained activity is statistically significant at the 95% confidence level (i.e. Prob>|t| 0.0005).

[3] = system: heart wall; details: primate-derived estimates; cited from earlier work
[4] = system: healthy adults; assay: clinical safety evaluation after single dose at rest; assay type: in vivo, human; details: 13 healthy adults
Description: This was a non-randomized, open-label, single-dose study. A total of 13 healthy adult subjects were enrolled and administered a single dose of imaging agent 1 at a single study center in the United States. Subjects were screened within 14 days prior to enrollment to confirm subject eligibility, and began baseline assessments at the study center the day before study drug administration. Subjects remained at the study center until completion of the Study Day 2 safety assessments (24±8 hours post-dose). A telephone call was made to study subjects 48±8 hours post-dose for adverse event (AE) monitoring. All subjects returned to the study center approximately one week (5-7 days) post-dose for a follow-up safety visit, and were contacted by telephone approximately 14-17 days post-dose for final serious AE monitoring.

Compound: CC(C)(C)n1ncc(OCc2ccc(COCC[18F])cc2)c(Cl)c1=O [imaging agent 1, 2-t-butyl-4-chloro-5-[4-(2-(^18F)fluoroethoxymethyl)-benzyloxy]-2H-pyridazin-3-1]
- perfusion defect area in the left ventricular wall [1]: clearly detected
- Retained Activity in syringe ([2]; B&D (Becton & Dickinson) three-component syringe): 35.2% and 38.9% and 32.4%
- Retained Activity in syringe ([2]; HSW (Henke Sass Wolf) two-component syringe): 11.3% and 7.0% and 5.1%
- estimated human radiation dose for the heart wall [3]: 0.067 mSv/MBq
- changes from baseline in vital signs, laboratory values, ECGs and EEGs [4]: not clinically significant
- potential cardiotoxicity (coagulation studies, Troponin-T levels) [4]: not exhibited
- tolerability [4]: well-tolerated and no clinically significant safety concerns were raised
